Twelve compounds from patent US4990521A, “4-(aroylamino)piperidine-butanimide derivatives” (Janssen Pharmaceutica, priority 1989, dated 1991) can be followed below.

Experiment [1] can be described thus: Tail Withdrawal Test in Rats (undesired central effects). Type of experiment: in vivo. The conditions noted are these: Rattus norvegicus, oral, tail in 55° C. water, suppression of withdrawal response exceeding 10 seconds in 50% of animals, fasted male Wistar rats. How it is done:
Male Wistar rats were fasted overnight. Each animal was treated orally with a dose level of the compound to be tested. The thus treated rats Were put into individual restraining cages. At various time periods after administration, the lower 5 cm portion of the tail was immersed into a cup filled with water at a constant temperature of 55° C. The typical tail withdrawal response was evaluated during a 10 seconds period after the immersion. ED50 values in mg/kg body weight were determined as that dose of the test compound capable of suppressing in 50% of the tested animals the typical tail withdrawal response during a time period exceeding 10 seconds. Said ED50 values obtained for the compounds of the present invention are gathered in Table 1 column two.

Experiment [2] can be described thus: Ricinus Oil Test in Rats (antidiarrheal activity). Type of experiment: in vivo. The conditions noted are these: Rattus norvegicus, po, 1 h, compound 1 hour before 1 ml ricinus oil orally, no diarrhea in 50% of animals 1 hour after ricinus oil, fasted female Wistar rats. From the text:
The use of the compounds of formula (I), their N-oxide forms, pharmaceutically acceptable acid-addition salts and stereoisomeric forms thereof in the method of the present invention is based on their useful antidiarrheal activity. This property is clearly evidenced by the experimental data obtained in, for example, the "Ricinus oil Test in Rats". […] By virtue of their useful antidiarrheal activity, it is evident that the compounds of formula (I), their N-oxide forms, pharmaceutically acceptable acid addition salts and stereoisomeric forms can be used in the treatment of diarrhea.
Female Wistar rats were fasted overnight. Each animal was treated orally with a dose level of the compound to be tested. One hour thereafter, the animal received 1 ml of ricinus oil orally. Each animal was kept in an individual cage and 1 hour after the ricinus oil treatment, the presence or absence of diarrhea was noted. The ED50 value was determined as that dose in mg/kg body weight, at which no diarrhea was present in 50% of the tested animals. Said ED50 -values for the compounds of the present invention can be found in the first column of Table 1.

One may read the ED50 as the dose that gives a 50% effect, or the effect in half of the subjects. Higher therefore signals a need for a large dose. As to `CC(CC(C(=O)N(C)C)(c1ccccc1)c1ccccc1)N1CC[C@@H](NC(=O)c2ccc(Cl)cc2N)[C@H](O)C1` (relative stereo) [Compound 70, trans-4-[(2-amino-4-chlorobenzoyl)amino]-3-hydroxy-N,N,γ-trimethyl-α,α-diphenyl 1-piperidinebutanamide monohydrate], the ED50 in experiment [1] is above 40 mg/kg; in experiment [2] it was below 0.63 mg/kg.
Consider `CC(CC(C(=O)N(C)C)(c1ccccc1)c1ccccc1)N1CC[C@@H](NC(=O)c2ccc(Cl)c(Cl)c2)[C@H](O)C1` (relative stereo) [Compound 2], for which the ED50 in experiment [1] was above 160 mg/kg; in experiment [2], 0.63 mg/kg.
The matching figures for `CC(CC(C(=O)N(C)C)(c1ccccc1)c1ccccc1)N1CC[C@@H](NC(=O)c2cccc(Cl)c2)[C@H](O)C1` (relative stereo) [Compound 10]: above 40 mg/kg and 0.04 mg/kg.
For the compound `CO[C@@H]1CN(C(C)CC(C(=O)N(C)C)(c2ccccc2)c2ccccc2)CC[C@H]1NC(=O)c1cccc(C(F)(F)F)c1` (relative stereo) [Compound 52, trans-3-methoxy-N,N,γ-trimethyl-α,α-diphenyl-4-[[3-(trifluoromethyl)benzoyl]amino]-1-piperidinebutanamide], the figures for the ED50 in experiment [1] and in experiment [2] were 40 mg/kg and 2.5 mg/kg, respectively.
Turning to `COc1c(Cl)cc(Cl)cc1C(=O)N[C@@H]1CCN(C(C)CC(C(=O)N(C)C)(c2ccccc2)c2ccccc2)C[C@H]1O` (relative stereo) [Compound 31], the ED50 is around 40 mg/kg in experiment [1] and 0.63 mg/kg in experiment [2].
Turning to `CC(CC(C(=O)N(C)C)(c1ccccc1)c1ccccc1)N1CC[C@@H](NC(=O)c2cccc(Cl)c2N)[C@H](O)C1` (relative stereo) [Compound 69, trans-4-[(2-amino-3-chlorobenzoyl)amino]-3-hydroxy-N,N,γ-trimethyl-α,α-diphenyl-1-piperidinebutanamide], the ED50 in experiment [1] is above 40 mg/kg; in experiment [2], below 0.63 mg/kg.
For `CC(CC(C(=O)N(C)C)(c1ccccc1)c1ccccc1)N1CC[C@@H](NC(=O)c2ccccc2O)[C@H](O)C1` (relative stereo) [Compound 77, trans-3-hydroxy-4-[(2-hydroxybenzoyl)-amino]-N,N,γ-trimethyl-α,α-diphenyl-1-piperidinebutanamide], in that order: at least 40 mg/kg and 0.16 mg/kg.
For `CCCC(=O)c1ccc(OC)c(C(=O)N[C@@H]2CCN(C(C)CC(C(=O)N(C)C)(c3ccccc3)c3ccccc3)C[C@H]2O)c1` (relative stereo) [Compound 34], in that order: above 40 mg/kg and below 2.5 mg/kg.
On to `CC(CC(C(=O)N(C)C)(c1ccccc1)c1ccccc1)N1CC[C@@H](NC(=O)c2cccc(N)c2O)[C@H](O)C1` (relative stereo) [Compound 68, trans-4-[(3-amino-2-hydroxybenzoyl)amino]-3-hydroxy-N,N,γ-trimethyI-α,α-diphenyl-1-piperidinebutanamide], for which the ED50 in experiment [1] was above 40 mg/kg; in experiment [2], 0.63 mg/kg.
For `COc1cc(N)ccc1C(=O)N[C@@H]1CCN(C(C)CC(C(=O)N(C)C)(c2ccccc2)c2ccccc2)C[C@H]1O` (relative stereo) [Compound 75, trans-4[(4-amino-2-methoxybenzoyl)amino]-3-hydroxy-N,N,γ-trimethyl-α,α-diphenyl-1-piperidinebutanamide], in that order: above 40 mg/kg and 2.5 mg/kg.
As to `CC(CC(C(=O)N(C)C)(c1ccccc1)c1ccccc1)N1CC[C@@H](NC(=O)c2cccc(C(F)(F)F)c2)[C@H](O)C1` (relative stereo) [Compound 1, trans-3-hydroxy-N,N,γ-trimethyl-α,α-diphenyl-4-[[3-(trifluoromethyl)benzoyl]amino]-1-piperidinebutanamide], the ED50 is above 160 mg/kg in experiment [1] and 0.15 mg/kg in experiment [2].
For `Cc1ccc([N+](=O)[O-])c(C(=O)N[C@@H]2CCN(C(C)CC(C(=O)N(C)C)(c3ccccc3)c3ccccc3)C[C@H]2O)c1` (relative stereo) [Compound 21], in that order: above 40 mg/kg and at most 0.63 mg/kg.
